Experimental findings from patent US20210275581A1 (priority 2020, published 2021) are described below.

SMILES strings stand for the structures.

The test system of assay [1] is Streptococcus mutans Clark (ATCC). As to conditions: for minimal inhibitory concentration S. mutans: liquid culture, static growth, 37° C., 20 hours, 96 well microtiter plates.
Protocol: (§1) Salmonella enterica Serovar typhimurium LT2, Staphylococcus aureus USA300 LAC, and Streptococcus mutans Clark (ATCC) were used for the experiment. […] S. enterica and S. aureus were cultured in Muller Hinton media (Sigma-Aldrich) and S. mutans was cultured in Reinforced Clostridial Media (Oxoid).
(§2) Single bacterial colonies were inoculated into 2 mL of medium in 10 mL capacity culture tubes. Inoculated cultures of S. aureus and S. enterica were grown aerobically at 37° C. with shaking at 200 rpm for 24 hours. S. mutans was cultured statically for 48 hours. […] MICs were determined in cultures grown in 96 well microtiter plates. 100 μL of the standardized culture was sub-cultured into wells containing 100 μL of medium containing antimicrobial compound. Control wells containing 200 μL of media only or media compound were used to standardize the data. The microtiter plates were aerobically incubated statically at 37° C. for 20 hours. Culture optical densities (A600) were determined using Biotek® EPOCH 2 microplate reader.
(§3) The ability of Zn and (CP)2ZnCl4 to inhibit the growth of bacterial pathogens was examined. The minimal inhibitory concentrations of Zn and (CP)2ZnCl4 were determined in liquid culture after static growth.
For assay [2], the system named is Staphylococcus aureus USA300 LAC. As to conditions: liquid culture, static growth, 37° C., 20 hours, 96 well microtiter plates.
Protocol: as §1, §2, §3
Assay [3] has as its system Salmonella enterica Serovar typhimurium LT2. The note with it: liquid culture, static growth, 37° C., 20 hours, 96 well microtiter plates.
Protocol: as §1, §2, §3

In the case of `CCCCCCCCCCCCCCCC[n+]1ccccc1.CCCCCCCCCCCCCCCC[n+]1ccccc1.[Cl][Zn-2]([Cl])([Cl])[Cl]` [(CP)2ZnCl4, cetylpyridinium tetrachlorozincate], in assay [1], the “minimal inhibitory concentration S. mutans” value turned out to be 6 µg/mL. For the same compound, the “antibacterial activity against S. mutans, compared to CPC” value in assay [1] (result in words, comparison with CPC) was “slight improvement”. Further, in assay [1] (result in words, comparison with zinc chloride or CPC), the “MIC for Streptococcus mutans compared with zinc chloride or CPC” value is “lower than that of zinc chloride or CPC”. Further, the “minimal inhibitory concentration S. aureus” value in assay [2] is 6 µg/mL. In addition, the “minimal inhibitory concentration S. enterica” value in assay [3] was 60 µg/mL.

`[Cl-].[Cl-].[Zn+2]` [ZnCl2, zinc chloride, reference compound]: the “minimal inhibitory concentration S. mutans” value in assay [1] was around 65 µg/mL. For the same compound, the “minimal inhibitory concentration S. enterica” value in assay [3] is around 300 µg/mL.
